Where two headings read alike, the source gives them in different places.
Legend:
[1] = tested on: rats, mice, rabbits and dogs; experiment: Acute and multidose (28 day) toxicity studies, intranasal and intravenous; format: in vivo; conditions: single intranasal up to 100 μg/rat, 400 μg/rabbit, 600 μg/dog; repeated up to 50 μg/rat/day, 300 μg/dog/day; intravenous single and repeated up to 2.5 mg/kg
[2] = Ames reverse mutation assay; format: cell-based
bone marrow = experiment: in vivo bone marrow micronucleus test
pregnant rabbits = experiment: Reproductive toxicity studies in pregnant rabbits; format: in vivo; conditions: intravenous doses up to 2.5 mg/kg/day during the period of organogenesis
[3] = Preclinical pharmacokinetic studies, intranasal doses; format: in vivo; conditions: repeated or single escalating intranasal doses up to 100 μg/rat, 400 μg/rabbit, 600 μg/dog
[4] = Preclinical pharmacokinetic studies, intravenous doses; format: in vivo, rats, rabbits, or dogs; conditions: single repeated intravenous doses up to 2.5 mg/kg
[5] = tested on: women of reproductive age; experiment: Intranasal spray 500 nanograms in 14 women of reproductive age, autonomic and physiologic effects vs vehicle; format: in vivo, human; conditions: 500 nanograms intranasal, compared to the vehicle
[6] = tested on: women of reproductive age; experiment: Intranasal spray 1600 nanograms in women of reproductive age, core body temperature and sympathoadrenergic tone; format: in vivo, human; conditions: 1600 nanograms intranasal
Description: In another test also in women of reproductive age, intranasal delivery of a nasal spray containing 1600 nanograms of 16α,17α-epoxy-10β-hydroxyestr-4-en-3-one (one administration per nostril by a Valois intranasal spray pump of 50 μL of an aqueous solution of 16 μg/mL 16α,17α-epoxy-10β-hydroxyestr-4-en-3-one with 2% propylene glycol and 2% ethanol) caused a rapid (0.5 to 4 minute latency) decrease in core body temperature of 1±0.23° C. that persisted for 9±2.5 minutes.

hot flashes [7] = conditions: crossover analysis; cited from earlier work
hot flashes [8] = conditions: vs. 29% for placebo; cited from earlier work
hot flashes [9] = conditions: placebo response rate 37.8%, cited from earlier work
hot flashes [10] = conditions: cited from earlier work
hot flashes [11] = conditions: oral and transdermal clonidine; cited from earlier work
hot flashes [12] = conditions: 27% for placebo, cited from earlier work

Question: Which results are given for C[C@]12CC[C@H]3[C@@H](CCC4=CC(=O)CC[C@@]43O)[C@@H]1C[C@H]1O[C@H]12 [16α,17α-epoxy-10β-hydroxyestr-4-en-3-one, 16α,17α-Epoxy-10β-hydroxyestr-4-en-3-one]?
Answer: tolerability (deaths, adverse clinical signs, effects on laboratory or pathology parameters) [1]: well tolerated in all species tested; mutagenic or clastogenic potential [2]: no evidence of mutagenic or clastogenic potential; mutagenic or clastogenic potential (bone marrow): no evidence of mutagenic or clastogenic potential; effects on maternal or litter parameters (pregnant rabbits): no adverse effects on maternal or litter parameters; systemic exposure [3]: very low systemic exposure; plasma concentrations [4]: generally were dose-proportional and decreased rapidly; cardiac frequency [5]: not statistically significant increase; core body temperature [5]: statistically significant decreases; electrodermal activity (skin conductance) [5]: statistically significant decreases; electromyographic activity [5]: statistically significant decreases; respiratory frequency [5]: statistically significant decreases; vagal tone [5]: statistically significant increases; decrease in core body temperature [6]: 1±0.23 °C; persistence of decrease in core body temperature [6]: 9 ± 2.5 min; time to reduced tone of the sympathoadrenergic system (physiologic sinus arrhythmia) [6]: ≤ 5 minutes

Question: Which “reduction in hot flash frequency over the placebo condition” value (hot flashes [7]) does the source give for CNCCC(Oc1ccc(C(F)(F)F)cc1)c1ccccc1 (stereo not drawn) [Fluoxetine] here?
Answer: The value was roughly 20%.

Question: Which “reduction of hot flash frequency” value (hot flashes [8]) does the source give for NCC1(CC(=O)O)CCCCC1 [Gabapentin] here?
Answer: Its value is 45%.

Question: What does the source list for Fc1ccc([C@@H]2CCNC[C@H]2COc2ccc3c(c2)OCO3)cc1 [Paroxetine]?
Answer: decrease of hot flash composite scores (hot flashes [9]; 12.5 mg/day): 62%; decrease of hot flash composite scores (hot flashes [9]; 25.0 mg/day): 65%

Question: What does the source list for Clc1cccc(Cl)c1N=C1NCCN1 [clonidine, Clonidine]?
Answer: reduction of hot flash frequency (hot flashes [10]; oral clonidine): 46%; reduction of hot flash frequency (hot flashes [10]; transdermal clonidine): 80%; reductions in hot flash frequency compared with placebo (hot flashes [11]): smaller, but significant reductions

Question: Which results are given for COc1ccc(C(CN(C)C)C2(O)CCCCC2)cc1 (stereo not drawn) [venlafaxine, Venlafaxine]?
Answer: reduction of hot flash scores from baseline (hot flashes [12]; 37.5 mg/day): 37%; reduction of hot flash scores from baseline (hot flashes [12]; 75 and 150 mg/day): 60%
